Laboratory results: patent US20210095293A1, “METHODS OF TREATING CANCERS WITH GPR132 INHIBITORS” (The Board of Regents of the University of Texas System, priority 2016, published 2021)

Assays:
Type in all cases: cell-based, mouse
Gpr132 = test: calcium mobilization assay in BMDMs; details: WT or Gpr132-KO BMDMs stimulated with 25 mM
Protocol: FIG. 27. […] WT or Gpr132-KO BMDMs were stimulated with 25 mM lactate (Left) or HCl (Right) (n=3).
To determine whether Gpr132 is required for lactate signaling in macrophages, a calcium mobilization assay was performed. […] First, lactate levels in the CM of distinct cancer cell lines were measured using a Vitros 250 chemistry analyzer. […] Second, the effects of blocking lactate production from EO771 and 4T1.2 cells by oxamic acid, an inhibitor of lactate dehydrogenase was tested.

AKT/mTOR signaling = test: PathScan Akt Signaling Antibody Array in macrophages; details: lactate 5 mM for 15 min
Protocol: FIG. 20. Lactate activates macrophage AKT/mTOR signaling via Gpr132. WT and Gpr132-KO bone marrow-derived macrophages were serum starved for 24 hrs. After treatment with lactate (5 mM) for 15 min, cell lysate was harvested for detecting the activation status of AKT signaling pathway using a PathScan Akt Signaling Antibody Array Kit. WT, wild-type; Gpr132-KO, Gpr132 knockout.
To identify the signaling pathways that may mediate the function of lactate-Gpr132 axis in M2 macrophage activation, PathScan Akt Signaling Antibody Array was used to screen potential targets due to the importance of the Akt pathway in macrophage polarization. […] These findings reveal that lactate activation of Gpr132 facilitates macrophage M2 activation by augmenting AKT/mTOR signaling.
Samples of 20 μg protein were applied to SDS polyacrylamide gels. After protein transfer, membranes were incubated with antibodies for Arg-1 (rabbit polyclonal, Santa Cruz Biotechnology), CD206, Gpr132, or β-actin (mouse monoclonal, Sigma) (1:1000) overnight at 4° C. […] Densitometric quantification was performed by Image-Pro Plus 6.0 software (Media Cybernetics). PathScan Akt Signaling Antibody Array (Cell Signaling) was incubated with macrophage proteins and analyzed following kit instructions.

[1] = test system: breast cancer cells (4T1.2, EO771); test: Boyden chamber assay, cancer cell migration
Protocol: FIGS. 11A-11C. Lactate-activated macrophage promotes cancer cell adhesion, migration and invasion via Gpr132. (FIG. 11A) Adherence assays. 4T1.2 cells were suspended in fibronectin ([…]) pre-coated plates with CM from spleen-derived macrophages (mf) that were treated with 4T1.2 CM or lactate (5 mM) with or without Gpr132 antibody (6 mg/ml) or normal IgG (6 mg/ml) for 10 min. The adhered cells were stained with crystal violet, dissolved in 1% Triton X-100 and measured by OD590. (FIGS. 11B-11C) Boyden chamber assay of cancer cell migration and invasion. 4T1.2 cells (B) or EO771 cells (FIG. 11C) were plated on the upper chamber inserts, with untreated (Control), 4T1.2 CM-activated or lactate-activated spleen-derived WT or Gpr132-KO macrophages plated in the lower chambers. For invasion assay, the inserts were pre-coated with 60 μl matrigel. After migration for 6 hrs (FIG. 11B) or invasion for 24 hrs (FIG. 11C), the migrated or invaded cells were stained with crystal violet and counted as cells per field of view under microscope (n=3-4); For (FIG. 11C), the first bar of each data set of the bar graphs represents the control mf, and the second bar represents Gpr132KO; *p<0.05; **p<0.01; ***p<0.005; ****p<0.001. Scale bar, 500 μm.
FIGS. 23A-23B. Cancer cell-derived lactate activates macrophages to promote cancer cell migration and invasion via Gpr132. (FIGS. 23A-23B) Boyden chamber assay. EO771 or 4T1.2 cells were cultured in the presence or absence of oxamic acid (90 mM) for 3 days. CM was harvested after the cells were cultured for another 24 hrs without oxamic acid. As a rescue, CM of oxamic acid-treated EO771 or 4T1.2 cells was supplemented with exogenous lactate. […] After migration for 6 hrs (FIG. 23A) or invasion for 24 hrs (FIG. 23B), the migrated or invaded cells were stained with crystal violet and counted as cells per field of view under microscope (n=3-4); for (FIG. 23A), the bars in each data set of the bar graph represent, from left to right, control, EO771, Oxamic acid, and Oxamic acid+Lactate; for (FIG. 23B), the bars in each data set of the bar graph represent, from left to right, control, 4T1.2CM, Oxamic acid, and Oxamic acid+Lactate; *p<0.05; ****p<0.001. […]
Migration or invasion of breast cancer cells was examined using 24-well Boyden chambers (Corning, Corning, N.Y.) with transwell inserts of […] pore size, coated without (for migration) or with matrigel (for invasion) as previously reported. […] The migrated or invaded cells were fixed with methanol and stained with crystal violet (0.05%, sigma), and then counted as cells per field of view under microscope or measured as OD570 after crystal violet was dissolved.

CC(O)C(=O)O (stereo not drawn) [lactate]
effect of Gpr132 deletion on triggered calcium mobilization (Gpr132): compromised | increase of AKT/mTOR pathway phosphorylation in Gpr132-KO macrophages (AKT/mTOR signaling; Gpr132-KO BMDMs): not | phosphorylation of AKT (Thr308), mTOR (Ser2481), S6 Ribosomal protein (Ser235/236) and RSK-1 (Thr421/Ser424) in WT macrophages (AKT/mTOR signaling; serum starved WT BMDMs): increased | number of migrated cancer cells with activated WT macrophages ([1]; 4T1.2 cells, 6 hrs, vs untreated WT macrophages): significantly enhanced | effects on cancer cell migration with Gpr132-KO macrophages ([1]; Gpr132 deletion in macrophages): attenuated | rescue of migration by addition to oxamic acid-pretreated cancer cell CM ([1]; exogenous lactate, WT macrophages): restored
